From ChEMBL document CHEMBL1128880, “Design and synthesis of heterocyclic analogues of mycophenolic acid as potential chemotherapeutic agents” (Bioorg Med Chem Lett, 1995)

What was measured:
L1210 = assay: In vitro antitumor activity against L1210 murine lymphocytic leukemia cells; assay type: functional, cell-based; conditions: Mus musculus
MCF7 = assay: In vitro antitumor activity against MCF-7 human breast adenocarcinoma cells; assay type: functional, cell-based
A549 = assay: In vitro antitumor activity against A549 human NSCLC lung carcinoma cells; assay type: functional, cell-based
CCRF-CEM [1] = assay: Cytotoxic activity against HIV infected T4 lymphocytes (CEM cell line); assay type: functional, cell-based; conditions: Homo sapiens
HT-29 = assay: In vitro antitumor activity against HT-29 human colon adenocarcinoma cells; assay type: functional, cell-based
PSN1 = assay: In vitro antitumor activity against PSN-1 human pancreatic carcinoma cells; assay type: functional, cell-based
CCRF-CEM [2] = assay: Cytotoxic activity against HIV uninfected T4 lymphocytes (CEM cell line); assay type: functional, cell-based; conditions: Homo sapiens
CCRF-CEM [3] = assay: Antitumor activity against HIV infected T4 lymphocytes (CEM cell line) at 0.4 uM concentration; assay type: functional, Homo sapiens

| Structure (SMILES) | IC50 (L1210) | IC50 (MCF7) | IC50 (A549) | IC50 (CCRF-CEM [1]) | IC50 (HT-29) | IC50 (PSN1) | IC50 (CCRF-CEM [2]) | Protection (CCRF-CEM [3]) |
| --- | --- | --- | --- | --- | --- | --- | --- | --- |
| C/C(=C\Cc1ccc(C(N)=O)[nH]1)CCC(=O)O | > 100 µM | > 100 µM | > 100 µM | 730 µM | > 100 µM | > 100 µM |  |  |
| C/C(=C\Cc1nc(C(N)=O)cs1)CCC(=O)O | > 100 µM | > 100 µM | > 100 µM |  | > 100 µM | > 100 µM |  |  |
| C/C(=C\Cn1cnc2c(O)ncnc21)CCC(=O)O | > 100 µM | > 100 µM | > 100 µM |  | > 100 µM | > 100 µM |  |  |
| C/C(=C\Cn1cnc2c(Cl)ncnc21)CCC(=O)O | > 100 µM | > 100 µM | > 100 µM |  | > 100 µM | > 100 µM |  |  |
| C/C(=C\Cn1cnc(C(N)=O)n1)CCC(=O)O | > 100 µM | > 100 µM | > 100 µM |  | > 100 µM | > 100 µM |  |  |
| COC(=O)c1ccc(C/C=C(\C)CCC(=O)O)[nH]1 | > 100 µM | > 100 µM | > 100 µM | 360 µM | > 100 µM | > 100 µM |  |  |
| C/C(=C\Cn1cnc(C(=O)O)n1)CCC(=O)O | > 100 µM | > 100 µM | > 100 µM |  | > 100 µM | > 100 µM |  |  |
| C/C(=C\Cc1cccc(C(N)=O)n1)CCC(=O)O | > 100 µM | > 100 µM | > 100 µM |  | > 100 µM | > 100 µM |  |  |
| COc1c(C)c2c(c(O)c1C/C=C(\C)CCC(=O)O)C(=O)OC2 [MYCOPHENOLIC ACID] | < 0.2 µM | 0.5 µM | 0.4 µM |  | 0.9 µM | 0.7 µM | 0.9 µM | 20% |
